According to patent US8901118B2, “Compounds and methods for kinase modulation, and indications therefor” (Plexxikon Inc., priority 2010, dated 2014):

Tests used:
BCR-KIT BaF3 cells = target: T1, BCR-KIT BaF3 cells (Homo sapiens, UniProt P10721); assay: BaF3 BCR-KIT cell proliferation assay (ATPlite); format: cell-based; details: read-out: Inhibition of Cell Proliferation IC50, BCR/BaF3 Kit
T1 construct: fused on or other part: P11274 (Breakpoint cluster region protein)
Outline: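 Cells are plated overnight: BaF3 at 10,000/well in G418 medium without WEHI/IL-3, MV-4-11 at 25,000/well in IMDM with 10% FBS. An 8-point 1:3 compound titration (10 μM top) is then added, and plates are incubated 3 days at 37 °C before ATPlite readout and IC50 determination.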

CYP2C19 = CYP2C19 (Homo sapiens, UniProt P33261); assay: CYP2C19 inhibition (fluorescent substrate CEC); format: in vitro ADME; details: read-out: Cyp IC50 2C19
Outline: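 Test compound titrated 1:1 across ten concentrations; metabolite fluorescence measured after 37 °C incubation of 15 min (CYP1A2), 30 min (CYP2C19, CYP2D6) or 45 min (CYP2C9). IC50 from signal versus concentration.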

T1 sequence (P10721 589-937): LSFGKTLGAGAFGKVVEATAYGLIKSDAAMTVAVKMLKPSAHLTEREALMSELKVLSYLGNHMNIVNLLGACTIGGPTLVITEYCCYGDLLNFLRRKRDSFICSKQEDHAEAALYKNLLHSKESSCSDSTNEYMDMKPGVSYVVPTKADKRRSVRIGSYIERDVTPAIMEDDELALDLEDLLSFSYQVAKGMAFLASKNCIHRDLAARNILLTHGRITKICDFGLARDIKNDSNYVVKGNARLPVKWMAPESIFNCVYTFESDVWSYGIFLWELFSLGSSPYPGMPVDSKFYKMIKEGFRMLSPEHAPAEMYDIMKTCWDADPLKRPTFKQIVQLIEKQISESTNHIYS
Chain of CYP2C19 (P33261 whole entry): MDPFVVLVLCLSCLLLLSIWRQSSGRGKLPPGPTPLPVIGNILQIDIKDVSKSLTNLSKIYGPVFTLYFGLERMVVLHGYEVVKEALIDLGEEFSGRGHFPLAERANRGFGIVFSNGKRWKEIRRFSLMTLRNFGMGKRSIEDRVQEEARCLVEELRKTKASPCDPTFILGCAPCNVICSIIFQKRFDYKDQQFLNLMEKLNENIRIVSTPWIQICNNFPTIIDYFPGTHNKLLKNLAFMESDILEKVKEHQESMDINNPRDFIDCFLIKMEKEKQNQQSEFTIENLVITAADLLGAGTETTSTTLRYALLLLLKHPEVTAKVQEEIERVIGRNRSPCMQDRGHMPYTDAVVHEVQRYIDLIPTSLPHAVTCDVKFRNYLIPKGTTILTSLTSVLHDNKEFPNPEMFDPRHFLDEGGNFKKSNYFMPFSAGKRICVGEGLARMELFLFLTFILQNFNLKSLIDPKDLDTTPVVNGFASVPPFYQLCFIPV

| IC50 (BCR-KIT BaF3 cells) | IC50 (CYP2C19) | SMILES |
| --- | --- | --- |
| > 10000 nM |  | Clc1cnc2[nH]cc(Cc3cnc(NC4CCC4)nc3)c2c1 [Compound P-3007, [5-(5-Chloro-1H-pyrrolo[2,3-b]pyridin-3-ylmethyl)-pyrimidin-2-yl]-cyclobutyl-amine] |
| > 1000 nM | < 5000 nM | Cc1cnc2[nH]cc(Cc3ccc(NC4CCCCC4)nc3F)c2c1 [Compound P-3008, cyclohexyl-[6-fluoro-5-(5-methyl-1H-pyrrolo[2,3-b]pyridin-3-ylmethyl)-pyridin-2-yl]-amine] |
| < 100 nM |  | O=C(c1ccc(Nc2ccc(C3CC3)nc2)nc1F)c1c[nH]c2ncnc(C3CC3)c12 [Compound P-4040, [6-(6-Cyclopropyl-pyridin-3-ylamino)-2-fluoro-pyridin-3-yl]-(4-cyclopropyl-7H-pyrrolo[2,3-d]pyrimidin-5-yl)-methanone] |
| < 100 nM | < 5000 nM | Fc1nc(Nc2ccc(C3CC3)nc2)ccc1Cc1c[nH]c2ncnc(C3CC3)c12 [Compound P-4041, (6-Cyclopropyl-pyridin-3-yl)-[5-(4-cyclopropyl-7H-pyrrolo[2,3-d]pyrimidin-5-ylmethyl)-6-fluoro-pyridin-2-yl]-amine] |
| < 1000 nM |  | Nc1ncnc2[nH]cc(C(=O)c3ccc(NC4CCC(F)(F)CC4)nc3Cl)c12 [Compound P-4046, (4-amino-7H-pyrrolo[2,3-d]pyrimidin-5-yl)-[2-chloro-6-[(4,4-difluorocyclohexyl)amino]-3-pyridyl]methanone] |
| > 1000 nM | > 10000 nM | CC(C)=CNc1ncnc2[nH]cc(C(=O)c3ccc(NC4CCC(F)(F)CC4)nc3Cl)c12 [Compound P-4047, [2-chloro-6-[(4,4-difluorocyclohexyl)amino]-3-pyridyl]-[4-(2-methylprop-1-enylamino)-7H-pyrrolo[2,3-d]pyrimidin-5-yl]methanone] |
| < 1000 nM | > 10000 nM | Nc1ncnc2[nH]cc(C(=O)c3ccc(Nc4ccc(C5CC5)nc4)nc3F)c12 [Compound P-4048, (4-amino-7H-pyrrolo[2,3-d]pyrimidin-5-yl)-[6-[(6-cyclopropyl-3-pyridyl)amino]-2-fluoro-3-pyridyl]methanone] |
| < 1000 nM | 5000 to 10000 nM | CC(C)(O)CNc1ncnc2[nH]cc(C(=O)c3ccc(Nc4ccc(C5CC5)nc4)nc3F)c12 [Compound P-4049, [6-[(6-cyclopropyl-3-pyridyl)amino]-2-fluoro-3-pyridyl]-[4-[(2-hydroxy-2-methyl-propyl)amino]-7H-pyrrolo[2,3-d]pyrimidin-5-yl]methanone] |
| > 1000 nM | > 10000 nM | CCNc1ncnc2[nH]cc(C(=O)c3ccc(NC4CCC(F)(F)CC4)nc3Cl)c12 [Compound P-4050, [2-chloro-6-[(4,4-difluorocyclohexyl)amino]-3-pyridyl]-[4-(ethylamino)-7H-pyrrolo[2,3-d]pyrimidin-5-yl]methanone] |
| > 1000 nM | > 10000 nM | CCNc1ncnc2[nH]cc(C(=O)c3cnc(NC4CCC(F)(F)CC4)c(F)c3)c12 [Compound P-4051, [6-[(4,4-difluorocyclohexyl)amino]-5-fluoro-3-pyridyl]-[4-(ethylamino)-7H-pyrrolo[2,3-d]pyrimidin-5-yl]methanone] |
| > 1000 nM | > 10000 nM | O=C(c1cnc(NC2CCC(F)(F)CC2)c(F)c1)c1c[nH]c2ncnc(NCC(F)(F)F)c12 [Compound P-4052, [6-[(4,4-difluorocyclohexyl)amino]-5-fluoro-3-pyridyl]-[4-(2,2,2-trifluoroethylamino)-7H-pyrrolo[2,3-d]pyrimidin-5-yl]methanone] |
| < 1000 nM | > 10000 nM | O=C(c1cnc(NC2CCC(F)(F)CC2)c(F)c1)c1c[nH]c2ncnc(NC3CC3)c12 [Compound P-4053, [4-(cyclopropylamino)-7H-pyrrolo[2,3-d]pyrimidin-5-yl]-[6-[(4,4-difluorocyclohexyl)amino]-5-fluoro-3-pyridyl]methanone] |
| < 1000 nM | > 10000 nM | CNc1ncnc2[nH]cc(C(=O)c3cnc(NC4CCC(F)(F)CC4)c(F)c3)c12 [Compound P-4054, [6-[(4,4-difluorocyclohexyl)amino]-5-fluoro-3-pyridyl]-[4-(methylamino)-7H-pyrrolo[2,3-d]pyrimidin-5-yl]methanone] |
